{"source": "patent US12187683B2", "about": "“Benzoindazolone compound and intermediate thereof” (LMITO THERAPEUTICS INC., priority 2019, dated 2025)", "target": "NQO1 (Homo sapiens, UniProt P15559)", "sequence (P15559 whole entry, species assumed)": "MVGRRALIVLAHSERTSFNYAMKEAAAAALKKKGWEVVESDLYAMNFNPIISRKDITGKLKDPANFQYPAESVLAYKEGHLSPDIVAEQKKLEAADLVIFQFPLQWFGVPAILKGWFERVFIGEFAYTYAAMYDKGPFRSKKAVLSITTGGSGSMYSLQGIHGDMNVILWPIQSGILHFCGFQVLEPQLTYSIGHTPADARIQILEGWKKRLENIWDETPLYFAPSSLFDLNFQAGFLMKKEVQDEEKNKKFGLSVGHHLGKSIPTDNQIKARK", "assay": "In vitro NQO1 enzyme activity assay (cytochrome C reduction, absorbance at 550 nm)", "assay_type": "biochemical", "conditions": "NQO1 2 ng", "protocol": "In order to evaluate the activity of synthesized compound in NQO1, the experiments were conducted as follows:\nThe synthesized compound was dissolved in DMSO to make a 10 mM stock solution, which was further diluted with DMSO to 250 μM so as to prepare a working solution. For experimental groups, the working solution of the compound was added to an enzyme reaction solution in which 50 μL of 1.54 mM Cytochrome C solution was added to 900 μL of 50 mM Tris-HCl (pH7.5) containing 0.14% BSA. For negative control groups, DMSO not containing the compound of the invention was added to the enzyme reaction solution as above. For each experimental and control group, 20 μL of 100 ng/mL NQO1 protein was added. Next, 10 μL of 20 mM NADH was added to bring up the volume to 1 mL. The change of absorbance was measured at 550 nm for 10 minutes using 1 mL cuvette. The kinetics of reaction was measured with the increase of absorbance as the cytochrome C was reduced at 550 nm over 10 minutes. The activity of NQO1 was measured by the amount of cytochrome C that is being reduced (nmol cytochrome C that was reduced/min/ug NQO1 protein).\nAbsorption coefficient of Cytochrome C: 21.1 (μmol/mL)^−1 cm^−1\nEquipment=Cary 100 UV-Vis Spectrophotometer", "key": {"[1]": {"conditions": "Table 2, Compound 0.2 μM, control 96"}, "[2]": {"conditions": "Table 3, Compound 0.2 μM, control 74"}, "[3]": {"conditions": "Table 4, Compound 0.2 μM, control 10"}, "[4]": {"conditions": "Table 1, Compound 5 μM, control 196"}}, "data": [{"smiles": "CC(C)n1c2c(c(=O)n1C)C(=O)C(=O)c1ccccc1-2", "note": "[Compound 16, 1-isopropyl-2-methyl-1H-benzo[g]indazol-3,4,5(2H)-trione]", "values": [{"measurement": "NQO1 activity (nmol of reduced Cytochrome C/min/μg NQO1 protein)", "setting": "[1]", "value": "4441 nmol of reduced Cytochrome C/min/μg NQO1 protein"}]}, {"smiles": "Cn1c2c(c(=O)n1-c1ccccc1)C(=O)C(=O)c1ccccc1-2", "note": "[Compound 20, 1-methyl-2-phenyl-1H-benzo[g]indazol-3,4,5(2H)-trione]", "values": [{"measurement": "NQO1 activity (nmol of reduced Cytochrome C/min/μg NQO1 protein)", "setting": "[2]", "value": "436 nmol of reduced Cytochrome C/min/μg NQO1 protein"}]}, {"smiles": "CC(C)CCOc1nn(-c2ccccc2)c2c1C(=O)C(=O)c1ccccc1-2", "note": "[Compound 12, 3-(isopentyloxy)-1-phenyl-1H-benzo[g]indazol-4,5-dione]", "values": [{"measurement": "NQO1 activity (nmol of reduced Cytochrome C/min/μg NQO1 protein)", "setting": "[1]", "value": "2981 nmol of reduced Cytochrome C/min/μg NQO1 protein"}]}, {"smiles": "COc1nn(-c2ccccc2)c2c1C(=O)C(=O)c1cc(N)ccc1-2", "note": "[Compound 24, 7-amino-3-methoxy-1-phenyl-1H-benzo[g]indazol-4,5-dione]", "values": [{"measurement": "NQO1 activity (nmol of reduced Cytochrome C/min/μg NQO1 protein)", "setting": "[3]", "value": "3739 nmol of reduced Cytochrome C/min/μg NQO1 protein"}]}, {"smiles": "O=C1C(=O)c2c(n(-c3ccccc3)[nH]c2=O)-c2ccccc21", "note": "[Compound 1, 1-phenyl-1H-benzo[g]indazol-3,4,5(2H)-trione]", "values": [{"measurement": "NQO1 activity (nmol of reduced Cytochrome C/min/μg NQO1 protein)", "setting": "[4]", "value": "180 nmol of reduced Cytochrome C/min/μg NQO1 protein"}]}, {"smiles": "COc1nn(C(C)C)c2c1C(=O)C(=O)c1ccccc1-2", "note": "[Compound 17, 1-isopropyl-3-methoxy-1H-benzo[g]indazol-4,5-dione]", "values": [{"measurement": "NQO1 activity (nmol of reduced Cytochrome C/min/μg NQO1 protein)", "setting": "[2]", "value": "4488 nmol of reduced Cytochrome C/min/μg NQO1 protein"}]}, {"smiles": "CCOc1nn(-c2ccccc2)c2c1C(=O)C(=O)c1ccccc1-2", "note": "[Compound 8, 3-ethoxy-1-phenyl-1H-benzo[g]indazol-4,5-dione]", "values": [{"measurement": "NQO1 activity (nmol of reduced Cytochrome C/min/μg NQO1 protein)", "setting": "[1]", "value": "3768 nmol of reduced Cytochrome C/min/μg NQO1 protein"}]}, {"smiles": "COc1nn(-c2ccccc2)c2c1C(=O)C(=O)c1cc([N+](=O)[O-])ccc1-2", "note": "[Compound 23, 3-methoxy-7-nitro-1-phenyl-1H-benzo[g]indazol-4,5-dione]", "values": [{"measurement": "NQO1 activity (nmol of reduced Cytochrome C/min/μg NQO1 protein)", "setting": "[3]", "value": "393 nmol of reduced Cytochrome C/min/μg NQO1 protein"}]}, {"smiles": "COc1nn(-c2ccccc2)c2c1C(=O)C(=O)c1ccccc1-2", "note": "[Compound 6, 3-methoxy-1-phenyl-1H-benzo[g]indazol-4,5-dione]", "values": [{"measurement": "NQO1 activity (nmol of reduced Cytochrome C/min/μg NQO1 protein)", "setting": "[4]", "value": "7706 nmol of reduced Cytochrome C/min/μg NQO1 protein"}, {"measurement": "NQO1 activity (nmol of reduced Cytochrome C/min/μg NQO1 protein)", "setting": "[1]", "value": "3782 nmol of reduced Cytochrome C/min/μg NQO1 protein"}, {"measurement": "NQO1 activity (nmol of reduced Cytochrome C/min/μg NQO1 protein)", "setting": "[2]", "value": "2905 nmol of reduced Cytochrome C/min/μg NQO1 protein"}, {"measurement": "NQO1 activity (nmol of reduced Cytochrome C/min/μg NQO1 protein)", "setting": "[3]", "value": "3261 nmol of reduced Cytochrome C/min/μg NQO1 protein"}]}, {"smiles": "COc1nn(-c2ccc(F)cc2)c2c1C(=O)C(=O)c1ccccc1-2", "note": "[Compound 19, 1-(4-fluorophenyl)-3-methoxy-1H-benzo[g]indazol-4,5-dione]", "values": [{"measurement": "NQO1 activity (nmol of reduced Cytochrome C/min/μg NQO1 protein)", "setting": "[1]", "value": "4303 nmol of reduced Cytochrome C/min/μg NQO1 protein"}]}, {"smiles": "Cn1c(=O)c2c(n1-c1ccccc1)-c1ccc(F)cc1C(=O)C2=O", "note": "[Compound 21, 7-fluoro-2-methyl-1-phenyl-1H-benzo[g]indazol-3,4,5(2H)-trione]", "values": [{"measurement": "NQO1 activity (nmol of reduced Cytochrome C/min/μg NQO1 protein)", "setting": "[2]", "value": "1095 nmol of reduced Cytochrome C/min/μg NQO1 protein"}]}, {"smiles": "COc1nn(-c2ccc(C(F)(F)F)cc2)c2c1C(=O)C(=O)c1ccccc1-2", "note": "[Compound 18, 3-methoxy-1-(4-(trifluoromethyl)phenyl)-1H-benzo[g]indazol-4,5-dione]", "values": [{"measurement": "NQO1 activity (nmol of reduced Cytochrome C/min/μg NQO1 protein)", "setting": "[1]", "value": "4232 nmol of reduced Cytochrome C/min/μg NQO1 protein"}]}, {"smiles": "CC(C)n1c(=O)c2c(n1C)-c1ccccc1C(=O)C2=O", "note": "[Compound 3, 2-isopropyl-1-methyl-1H-benzo[g]indazol-3,4,5(2H)-trione]", "values": [{"measurement": "NQO1 activity (nmol of reduced Cytochrome C/min/μg NQO1 protein)", "setting": "[4]", "value": "3066 nmol of reduced Cytochrome C/min/μg NQO1 protein"}]}, {"smiles": "CC(C)CCn1c(=O)c2c(n1-c1ccccc1)-c1ccccc1C(=O)C2=O", "note": "[Compound 11, 2-isopentyl-1-phenyl-1H-benzo[g]indazol-3,4,5(2H)-trione]", "values": [{"measurement": "NQO1 activity (nmol of reduced Cytochrome C/min/μg NQO1 protein)", "setting": "[1]", "value": "2839 nmol of reduced Cytochrome C/min/μg NQO1 protein"}]}, {"smiles": "CCn1c(=O)c2c(n1-c1ccccc1)-c1ccccc1C(=O)C2=O", "note": "[Compound 7, 2-ethyl-1-phenyl-1H-benzo[g]indazol-3,4,5(2H)-trione]", "values": [{"measurement": "NQO1 activity (nmol of reduced Cytochrome C/min/μg NQO1 protein)", "setting": "[1]", "value": "2246 nmol of reduced Cytochrome C/min/μg NQO1 protein"}]}, {"smiles": "CC(C)COc1nn(-c2ccccc2)c2c1C(=O)C(=O)c1ccccc1-2", "note": "[Compound 10, 3-isobutoxy-1-phenyl-1H-benzo[g]indazol-4,5-dione]", "values": [{"measurement": "NQO1 activity (nmol of reduced Cytochrome C/min/μg NQO1 protein)", "setting": "[1]", "value": "3455 nmol of reduced Cytochrome C/min/μg NQO1 protein"}]}, {"smiles": "COc1nn(-c2ccccc2)c2c1C(=O)C(=O)c1cc(F)ccc1-2", "note": "[Compound 22, 7-fluoro-3-methoxy-1-phenyl-1H-benzo[g]indazol-4,5-dione]", "values": [{"measurement": "NQO1 activity (nmol of reduced Cytochrome C/min/μg NQO1 protein)", "setting": "[2]", "value": "5360 nmol of reduced Cytochrome C/min/μg NQO1 protein"}]}, {"smiles": "COc1nn(-c2ccccc2)c2c1C(=O)C(=O)c1cc(Br)ccc1-2", "note": "[Compound 25, 7-bromo-3-methoxy-1-phenyl-1H-benzo[g]indazol-4,5-dione]", "values": [{"measurement": "NQO1 activity (nmol of reduced Cytochrome C/min/μg NQO1 protein)", "setting": "[3]", "value": "1445 nmol of reduced Cytochrome C/min/μg NQO1 protein"}]}, {"smiles": "CC(C)Oc1nn(-c2ccccc2)c2c1C(=O)C(=O)c1ccccc1-2", "note": "[Compound 2, 3-isopropoxy-1-phenyl-1H-benzo[g]indazol-4,5-dione]", "values": [{"measurement": "NQO1 activity (nmol of reduced Cytochrome C/min/μg NQO1 protein)", "setting": "[1]", "value": "3531 nmol of reduced Cytochrome C/min/μg NQO1 protein"}]}, {"smiles": "CC(C)n1c(=O)c2c(n1-c1ccccc1)-c1ccccc1C(=O)C2=O", "note": "[Compound 13, 2-isopropyl-1-phenyl-1H-benzo[g]indazol-3,4,5(2H)-trione]", "values": [{"measurement": "NQO1 activity (nmol of reduced Cytochrome C/min/μg NQO1 protein)", "setting": "[1]", "value": "2137 nmol of reduced Cytochrome C/min/μg NQO1 protein"}]}, {"smiles": "Cn1c(=O)c2c(n1-c1ccccc1)-c1ccccc1C(=O)C2=O", "note": "[Compound 5, 2-methyl-1-phenyl-1H-benzo[g]indazol-3,4,5(2H)-trione]", "values": [{"measurement": "NQO1 activity (nmol of reduced Cytochrome C/min/μg NQO1 protein)", "setting": "[4]", "value": "2602 nmol of reduced Cytochrome C/min/μg NQO1 protein"}]}, {"smiles": "CC(C)Cn1c(=O)c2c(n1-c1ccccc1)-c1ccccc1C(=O)C2=O", "note": "[Compound 9, 2-isobutyl-1-phenyl-1H-benzo[g]indazol-3,4,5(2H)-trione]", "values": [{"measurement": "NQO1 activity (nmol of reduced Cytochrome C/min/μg NQO1 protein)", "setting": "[1]", "value": "2474 nmol of reduced Cytochrome C/min/μg NQO1 protein"}]}]}
